Drawing on patent publication US6960591B2, “Propane-1,3-dione derivative” (Yamanouchi Pharmaceutical Co., Ltd., priority 2000, dated 2005), this text covers IC50 for 4 compounds.

pIC50: −log10 of the molar value. Where a name gives a salt, the structure may show the parent alone.

The experiment deals with T1, human GnRH receptor (Homo sapiens, UniProt P30968).
T1 construct: expressed in transfected cells; membrane fraction
T1 sequence (P30968 1-328): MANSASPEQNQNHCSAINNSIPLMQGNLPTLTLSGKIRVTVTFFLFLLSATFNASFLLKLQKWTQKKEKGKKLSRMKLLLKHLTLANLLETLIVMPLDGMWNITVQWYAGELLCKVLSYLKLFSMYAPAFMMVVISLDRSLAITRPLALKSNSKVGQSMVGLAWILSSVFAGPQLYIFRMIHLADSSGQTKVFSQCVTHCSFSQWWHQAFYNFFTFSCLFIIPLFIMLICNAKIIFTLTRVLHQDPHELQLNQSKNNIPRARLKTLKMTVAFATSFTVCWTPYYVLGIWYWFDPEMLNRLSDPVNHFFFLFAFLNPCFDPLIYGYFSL
The experiment is described as follows: Test of in vitro GnRH receptor antagonism: 125I-D-Trp6-LHRH binding inhibition. The conditions noted are these: inhibition of 0.1 nM 125I-D-Trp6-LHRH binding; membrane fractions of CHO cells expressing human GnRH receptor; 4° C. for 3 hours; read-out: IC50 value (concentration at which PMB equals 50%). How it is done:
In the following, in vitro GnRH receptor antagonistic effect of the pharmaceutical drugs and compounds of the invention was evaluated by inhibition of binding of ^125I-D-Trp^6-LHRH to human GnRH receptor.
1. Test of In Vitro GnRH Receptor Antagonism
(1) Preparation of Human GnRH Receptor-Expressing CHO (Chinese Hamster Ovary) Cells
Expression of human […] was carried out in a similar manner to a common method for protein expression (Chapter 9 In: Current Protocols In Molecular Biology: ed. by F. M. Ausubel et al., Greene Publishing Associates and Wiley-Interscience, 9.0.1-9.9.6 (1987), S. S. Kaker et al., Biol. Biophys. Res. Commun. 189, 289-295 (1992), R. Grosse et al., Mol. Endocrinol. 11, 1305-1318 (1997)). CHO cells were cultured (medium: αMEM, 10% FCS, containing an antibiotic-antimycotic agent) with an expression vector which has human GnRH receptor gene (SEQ ID No.: 1) and a transfection reagent FuGENE6 (manufactured by Boehringer-Mannheim) for 24 hours for transfection, whereby the CHO cells stably expressing human GnRH receptor (SEQ ID No.: 2, S. S. Kaker et al., Biol. Biophys. Res. Commun, 189, 289-295 (1992)) were obtained. The expression of the aimed receptor was confirmed by PCR method.
(2) Preparation of CHO Cell Membrane Fraction Containing Human GnRH Receptor
The CHO cells expressing the human GnRH receptor (3×10^8 cells), prepared in the above (1), were suspended in phosphate buffered saline (PBS) and centrifuged for 3 minutes at 100×G. The pellet suspended in 100 ml of a homogenate buffer (10 mM NaHCO3, 5 mM EDTA (ethylenediaminetetraacetic acid), pH 7.5) was homogenized using a Polytron homogenizer. After the resulting homogenate was centrifuged for 15 minutes at 400×G, the supernatant was centrifuged for 1 hour at 100,000×G. The membrane fraction obtained as a pellet was suspended in 60 ml of storage buffer (25 mM Tris-HCl, 1 mM EDTA, 10 μg/ml a protease inhibitor (Pefabloc SC (manufactured by Merck)), 1 μg/ml pepstatin A, 20 μg/ml leupeptin, 0.03% sodium azide, pH 7.5), and stored at −80° C. until use. […]
The membrane fractions of CHO cells expressing the human GnRH receptor which were prepared in the above (2) were diluted with assay buffer (HBSS (Hanks balanced salt solution), 20 mM HEPES, 0.1% BSA (bovine serum albumin), 100 μg/ml bacitracin, pH 7.4) so as to be 20 μg/tube, and were dispensed into tubes in an amount of 148 μl. […] The filters were washed three times with 1 ml of assay buffer and the radioactivity on the filter was measured using a γ-counter. Binding inhibition (%) (PMB) of each test compound at various concentrations were determined according to the following equation: PMB=(SB−NSB)/(TB−NSB)×100 (wherein TB: total binding radioactivity, SB: radioactivity when a test compound was added, NSB: non-specific binding radioactivity). […]
`Nc1cccc(C(=O)C(C(=O)c2cc(F)cc(F)c2)=C2Nc3ccccc3N2)c1` [Example 40, 1-(3-aminophenyl)-3-(3,5-difluorophenyl)-2-(1,3-dihydro-2H-benzimidazol-2-ylidene)propane-1,3-dione hydrochloride]: the pIC50 was 9.00 to 10.00. Next, `O=C(C(C(=O)c1cccc(CNCCc2ccncc2)c1)=C1Nc2ccccc2N1)c1ccccc1` [Example 79, 2-(1,3-dihydro-2H-benzimidazol-2-ylidene)-1-phenyl-3-(3-{[(2-pyridin-4-ylethyl)amino]methyl}phenyl)propane-1,3-dione hydrochloride]: 9.00 to 10.00. `O=C(C(C(=O)c1cccc(NCc2c[nH]cn2)c1)=C1Nc2ccccc2N1)c1cc(F)cc(F)c1` [Example 83, 1-(3,5-difluorophenyl)-2-(1,3-dihydro-2H-benzimidazol-2-ylidene)-3-{3-[(1H-imidazol-4-ylmethyl)amino]phenyl}propane-1,3-dione hydrochloride]: the pIC50 was 9.00 to 10.00. Next, `O=C(C(C(=O)c1cc(F)cc(F)c1)=C1Nc2ccc(OCc3cccnc3)cc2N1)c1ccccc1` [Example 402, 1-(3,5-difluorophenyl)-2-[5-(pyridin-3-ylmethoxy)-1,3-dihydro-2H-benzimidazol-2-ylidene]-3-phenylpropane-1,3-dione oxalate]: 9.00 to 10.00.
